The text below walks through data of patent US20140031388A1, “AKT INACTIVATION BY TOCOPHERYL DERIVATIVES” (priority 2012, published 2014).

Holding throughout (format): in vivo
Data set [1] concerns PC-3-luc xenograft tumors. Nature of the data set: PC-3-luc subcutaneous xenograft in athymic nude mice. The settings on record: 50 mg/kg daily intraperitoneal, 21 days. How it is done: (§1) Male athymic nude mice (Hsd:Athymic Nude-Foxn1^nu/nu, 5-7 weeks of age) were purchased from Harlan Laboratories and group-housed under conditions of constant photoperiod (12 hours light: 12 hours dark) with ad libitum access to sterilized food and water. Ectopic tumors were established in athymic nude mice by subcutaneous injection of 1×10^6 PC-3-luc or 2×10^6 LNCaP-abl cells in a total volume of 0.1 mL serum-free medium containing 50% Matrigel (BD Biosciences). The establishment and growth of tumors were monitored weekly by measurement with calipers (tumor volume=width^2×length×0.52) and bioluminescence (PC-3-luc) using the IVIS™ imaging system (Xenogen Corporation, Alameda, Calif.). For bioluminescent imaging, mice anesthetized with isoflurane were imaged at 15, 20 and 25 min after intraperitoneal administration of firefly luciferin (150 mg/kg; Caliper Life Sciences) to capture maximal luminescence. Data acquisition and analysis were achieved using the Living Image® software (Xenogen). […] Body weights and tumor burdens were measured weekly. At the study endpoint, mice were euthanized, and blood was collected by cardiac puncture from all mice and submitted to The Ohio State University Comparative Pathology and Mouse Phenotyping Shared Resource for determination of complete blood counts and serum chemistry.

The test system of data set [2] is LNCaP-abl xenograft tumors. Nature of the data set: LNCaP-abl subcutaneous xenograft in athymic nude mice. As for the experimental part: as §1
A short description of data set [3]: Toxicologic evaluation in PC-3-luc tumor-bearing mice. How it is done:
as §1

Setting [4] is: 50 mg/kg daily intraperitoneal, 21 days.
Where [5] appears, read: values within the normal ranges for mice.

As to `Cc1c(O)cc2c(c1C)O[C@](C)(CCCC(C)C)CC2` [γ-VE5, (R)-2,7,8-trimethyl-2-(4-methylpentyl)-chroman-6-ol], in data set [1] (P<0.05), the “PC-3-luc tumor growth relative to vehicle-treated controls (bioluminescence)” value is reported as “inhibited PC-3-luc tumor growth”. Moreover, the “intratumoral phosphorylation of Akt, MDM2 and IKKα” value in data set [1] (PC-3-luc tumors) is “suppressed phosphorylation of Akt at Ser^473 without disrupting that at Thr^308”. Besides, the “LNCaP-abl tumor growth relative to vehicle-treated controls” value in data set [2] (setting [4]) is listed as “significantly inhibited tumor growth”. The “intratumoral phosphorylation of Akt at Ser473, MDM2 and IKKα” value in data set [2] (LNCaP-abl tumors, relative to vehicle-treated controls) is given as “reduced phosphorylation”. In data set [3] (setting [4]), the “gross pathology findings at necropsy” value was “abdominal adhesions and variable amounts of clear fluid within the abdomen”. Also, the “change of mean body weight over the treatment period” value in data set [3] (50 mg/kg daily intraperitoneal, 21 days, vehicle −0.2 grams) is listed as −0.7 grams. Also, in data set [3] (50 mg/kg daily intraperitoneal, 21 days, vehicle −0.7%), the “change of mean body weight over the treatment period” value is −2.3%. Besides, in data set [3] (setting [5]), the “hematological findings relative to controls” value was “reductions in hematocrit, red blood cell numbers and hemoglobin concentration”; the serum chemistry findings entry is “increase in aspartate aminotransferase and a decrease in serum albumin concentrations”.
